Measured values taken from US6476012B2, “Estradiol-16α-carboxylic acid esters as locally active estrogens” (Yale University, priority 2001, dated 2002).
Structures can show the parent of a compound that is named as a salt.

How the values were obtained:
[1] = tested on: immature female rats (uterine weight); assay: In vivo systemic estrogenic assay (uterotrophic assay, uterine weight); set-up: species or system rat
Procedure: FIG. 2 depicts of the results of an in vivo systemic estrogenic assay (uterotrophic assay) as described in the experimental section. […] On the fourth day the animals were killed, the uteri removed and weighed. The total dose is shown. Controls were injected with sesame oil. Error bars are±S.D. n=5. *P<0.05, **P<0.001 when compared to the control.
In Vivo Estrogen Bioassays: Uterine Weight. […] Control animals received sesame oil. On the fourth day, the animals were killed, the uteri were removed, dissected, blotted and weighed. Each compound was assayed in 3 separate experiments with n=5.

[2] = tested on: esterase(s) in rat hepatic microsomes; assay: Esterase assay with rat hepatic microsomes; type: in vitro ADME; details: for Esterase RHA (relative hydrolytic activity): E16-1,2 = 100
Procedure: Esterase. Esterase activity was measured in rat hepatic microsomes essentially using the conditions described.^39 Liver obtained from Sprague-Dawley rats was washed with phosphate buffered saline and homogenized in 3 volumes of cold 0.25 M sucrose and centrifuged at 700 g for 10 min and then at 10,000 g for 20 min. The resulting supernatant was centrifuged at 105,000 g for 60 min. The pellet was suspended in 0.1 M phosphate buffer pH 7.4 and washed by centrifugation at 105,000 g for 60 min. The washed pellet was suspended in 0.1 M Tris-HCl pH 8.0 at a concentration of ˜13 mg protein/ml and frozen at −80° C. For assay, the pellets were thawed and diluted with the same buffer. The incubation mixture consisted of the microsomal enzyme preparation, 0.28 mg protein/ml, E2-16α-alkyl esters, 50 μM, added in 10 μL of ethanol, all in a final volume of 1 mL of Tris buffer pH 8.0. Since the rates of reaction are widely different for the various esters, the incubation times were varied accordingly to obtain linear kinetics. At several appropriate time points, 100 μL aliquots were withdrawn and the reaction was quenched with 33 μL CH3CN, followed by a 33 μL of a solution of THF containing 1 […] of the internal standard, 6-ketoestradiol. The quenched aliquot was centrifuged for several minutes on bench-top centrifuge and 80 μl of the supernatant was analyzed for the esterase-hydrolysis product (the corresponding E2-16α-carboxylic acid: E16-1,0 8; E16-2,0 23; E16-3,0 35) by reversed phase HPLC with system H-10 for E2-16-1 and E2-16-2 esters, and with system H-15 for E2-16-3 esters. The E2-16α-carboxyl products, (Rt for E16-1,0 8=7 min and for E16-2,0 23=9 min, E16-3,0 35=6.5 min) and the internal standard, 6-ketoestradiol (Rt 7.5 min in system H-10, and 5 min in system H-15) were quantified at 280 nm on the HPLC UV detector. The UV absorbance was converted to moles of product by comparison to standard curves and corrected for recovery of the internal standard, 6-ketoestradiol. The velocity of the reaction for each ester, in nmol product/min/ml/ was then normalized to the ester, E16-1,2 10 and is shown in Table 1 as relative hydrolytic activity (RHA). The enzymatic velocity for the hydrolysis of E16-1,2 10 was 0.9±0.2 (S.D.) nmol product/min/ml over the various experiments. Since all of the esters could not be tested simultaneously, in each case we compared the rate of hydrolysis of the test compound to that of E16-1,2 10 run concurrently. All compounds were tested in triplicate in 3 separate experiments.

[3] = target: T1, ER in rat uterine cytosol (ERα) (Rattus norvegicus, UniProt P06211); assay: Competitive binding to the ER in rat uterine cytosol (RBA vs [3H]E2); details: for ER RBA (relative binding affinity): rat uterine estrogen receptor assay, E2 = 100, ± S.D.; for RBA: uterine cytosol (ERα), relative to E2
T1 construct: The uterus was removed and homogenized in ice-cold TEGDMo buffer; from tissue; host or cells: uterine cytosol of castrated female Sprague Dawley rats
T1 sequence (P06211 1-600): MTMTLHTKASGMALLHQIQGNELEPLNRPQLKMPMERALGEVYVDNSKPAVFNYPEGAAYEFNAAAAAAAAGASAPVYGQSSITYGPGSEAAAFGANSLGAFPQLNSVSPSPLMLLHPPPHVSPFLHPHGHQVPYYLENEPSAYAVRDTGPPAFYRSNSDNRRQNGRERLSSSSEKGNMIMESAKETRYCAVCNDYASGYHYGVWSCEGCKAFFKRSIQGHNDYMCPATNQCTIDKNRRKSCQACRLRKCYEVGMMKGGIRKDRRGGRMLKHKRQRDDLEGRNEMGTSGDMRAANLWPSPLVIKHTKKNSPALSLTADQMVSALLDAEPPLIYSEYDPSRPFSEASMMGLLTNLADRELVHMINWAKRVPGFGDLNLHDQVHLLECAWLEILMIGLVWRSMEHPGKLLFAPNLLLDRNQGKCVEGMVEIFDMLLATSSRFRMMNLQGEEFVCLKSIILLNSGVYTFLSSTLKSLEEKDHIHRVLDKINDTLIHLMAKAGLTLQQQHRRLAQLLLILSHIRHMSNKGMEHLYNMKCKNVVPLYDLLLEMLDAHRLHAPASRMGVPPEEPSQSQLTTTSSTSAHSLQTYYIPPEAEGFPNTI
Procedure: Competitive Binding to the Estrogen Receptor ERα and ERβ. […] The ER in uterine cytosol is ERα the classical form of the ER.^38 Female Sprague Dawley rats were castrated and sacrificed 24 h later. The uterus was removed and homogenized in ice-cold TEGDMo buffer (10 mM Tris, 1.5 mM Na2-EDTA, 10% (v/v) glycerol, 1.0 mM dithiothreitol, 25 mM sodium molybdate, pH 7.4 at 4° C.). and centrifuged at 105,000 g for 45 min at 4° C. The supernatant (cytosol) was frozen on dry ice and stored at −80° C. until assay. […] Incubations were carried out on ice overnight and bound radioactivity was separated from free by adsorption with dextran coated charcoal and quantified by counting.^26 Relative Binding Affinity (RBA) was determined by analysis of the displacement curves by the curve-fitting program Prism (Graph-Pad Software inc., San Diego, Calif.). The results shown in Table 1. below, are from at least 3 separate experiments performed in duplicate.

[4] = tested on: alkaline phosphatase (AlkP) induction in Ishikawa cells; assay: Estrogenic potency in Ishikawa cells: induction of AlkP; type: cell-based, human; details: for RSA (estrogenic potency compared to E2): Ishikawa AlkP; for Ishikawa Cell AlkP RSA (relative stimulatory activity): induction of AlkP, E2 = 100, ± S.D.
Procedure: Estrogenic Potency in Ishikawa Cells. The estrogenic potency of the E2-analogs was determined in a estrogen bioassay, the induction of AlkP in human endometrial adenocarcinoma cells (Ishikawa) grown in 96-well microtiter plates as we have previously described.^28 In short, the cells are grown in phenol red free medium with estrogen depleted (charcoal stripped) bovine serum in the presence or absence of varying amounts of the steroids. […] After 3 days, the cells are washed, frozen and thawed, and then incubated with 5 mM p-nitrophenyl phosphate, a chromogenic substrate for the AlkP enzyme, at pH 9.8. To ensure linear enzymatic analysis, the plates are monitored kinetically for the for the production of p-nitrophenol at 405 nm. The relative stimulatory activity is determined by analysis of the curve fitting program Prism. Each compound was analyzed in at least 3 separate experiments performed in duplicate.

human ERβ and ERα = assay: Competitive binding to human ERβ and ERα expressed in Escherichia coli lysates (ratio of RBAs); details: RBAs (E2 = 100) in E. coli lysates expressing human ERβ and ERα separately
[5] = tested on: ovariectomized mouse vagina (vaginal reductase activity); assay: In vivo local estrogenic assay (vaginal reductases); details: for dose producing a statistically significant (P<0.001) stimulation of vaginal reductase: intravaginal single dose in 25% propylene glycol in saline (FIG. 3a)
Procedure: FIG. 3 depicts the results of in vivo local estrogenic assay (vaginal assay).
Controls were injected with vehicle. The next morning, 2,3,5-triphenyltetrazolium chloride was instilled in the vagina and thirty minutes later the animals were killed and the vaginal reductase activity was determined spectrophotometrically Panel a: the steroids were dissolved in 10 μL of 25% propylene glycol in saline. Panel b: the steroids were dissolved in 10 μL of sesame oil. n=5. Error bars are±S.D. *P<0.001 compared to the control.
In Vivo Estrogen Bioassays: Vaginal reductases. […] In some experiments as indicated, the method was modified by dissolving and injecting the estrogens in 10 μL of sesame oil. The next morning 0.5 mg of 2,3,5-triphenyltetrazolium chloride in 20 μL of saline was instilled in the vagina. Thirty minutes the animals were killed and the vaginas removed, washed thoroughly with saline and then blotted on filter paper. Each vagina was placed in a 12×75 mm test tube and extracted for 1 hour with ethanol/tetrachloroethylene (3:1). Afterwards, the solvent was removed and the formazan product in the organic extract was quantified at 500 nm. Each compound was assayed on at least 3 separate occasions with at least 5 replicates each time.

[6] = Stability on incubation with heat denatured enzyme under esterase assay conditions; type: in vitro ADME; details: heat denatured (1 h at 80° C.) enzyme, 37° C.
Procedure: The various E2-16α-alkyl esters, including the reactive E16-1,2vin 15, were stable under the conditions used in the esterase assay. Each of the substrates was incubated with heat denatured (1 h at 80° C.) enzyme at 37° C. for periods that exceeded the incubation times of the enzyme assay. Only insignificant amounts of carboxyl products were formed from any of these esters during the incubations with denatured enzyme.

Esterase RHA (relative hydrolytic activity) ([2]; rat hepatic microsomes, ± S.D.) | ER RBA (relative binding affinity) [3] | RBA [3] | SMILES | uterotrophic effect ([1]; 10 μg total dose per animal) | uterotrophic effect expressed as equivalent amount of E2 ([1]; 100 μg total dose) | RSA (estrogenic potency compared to E2) [4] | Ishikawa Cell AlkP RSA (relative stimulatory activity) [4] | ERα/ERβ (ratio of the RBAs) (human ERβ and ERα) | vaginal estrogenic effect ([5]; 50 ng in sesame oil (FIG. 3b)) | dose producing a statistically significant (P<0.001) stimulation of vaginal reductase [5] | further results
45 ± 10 | 35 ± 4 | 35% | COC(=O)[C@@H]1C[C@H]2[C@@H]3CCc4cc(O)ccc4[C@H]3CC[C@]2(C)[C@H]1O [E16-1,1, Methyl (3,17β-dihydroxyestra-1,3,5(10)-trien-16α-yl) formate] | small stimulatory action (P<0.05) | about 4 μg | 10% | 10 ±3 | 750 | still not stimulatory | 250 ng | uterotrophic stimulation expressed as equivalent amount of E2 ([1]; 30 μg total dose): ~3 ng; dose producing a reproducible and statistically significant stimulation (P<0.01) ([1]; immature rat, s.c. in sesame oil, 3 days, total dose): 30 to 50 µg
100 | 40 ± 10 | 40% | CCOC(=O)[C@@H]1C[C@H]2[C@@H]3CCc4cc(O)ccc4[C@H]3CC[C@]2(C)[C@H]1O [E16-1,2, Ethyl (3,17β-dihydroxyestra-1,3,5(10)-trien-16α-yl) formate] | no measurable stimulation | about 4 μg | 11% | 11 ± 5 | 1,300 | still not stimulatory | 250 ng | uterotrophic effect ([1]; 30 μg total dose): small increase in uterine weight; enzymatic velocity for the hydrolysis ([2]; rat hepatic microsomes 0.28 mg protein/ml, ester 50 μM, pH 8.0, ± S.D.): 0.9±0.2 nmol product/min/ml
420 ± 40 | 35 ± 3 | 35% | C[C@]12CC[C@@H]3c4ccc(O)cc4CC[C@H]3[C@@H]1C[C@@H](C(=O)OCCF)[C@@H]2O [E16-1,2F1, 2′-Fluoroethyl (3,17β-dihydroxyestra-1,3,5(10)-trien-16α-yl) formate] | – | – | 13% | 13 ± 5 | 2,000 | produced a significant estrogenic effect | 100 ng | uterotrophic effect ([1]; 100 μg total dose): did not produce a uterotrophic stimulation; uterotrophic effect expressed as equivalent amount of E2 ([1]; 300 μg total dose): less than 5 ng; uterotrophic effect ([1]; 300 μg total dose, other experiments (not shown)): small uterotrophic effect; rate of cleavage relative to the non-fluorinated ester E16-1,2 ([2]; esterase, rat hepatic microsomes): about 4 times; vaginal estrogenic effect ([5]; 10 ng in sesame oil): consistent stimulation at 10 ng of E16-1,2F1, however, it was not statistically significant; vaginal estrogenic effect expressed as equivalent dose of E2 ([5]; 50 ng in sesame oil (FIG. 3b)): ~20 pg
20,300 ± 5,500 | 6 ± 2 | 6% | C=COC(=O)[C@@H]1C[C@H]2[C@@H]3CCc4cc(O)ccc4[C@H]3CC[C@]2(C)[C@H]1O [E16-1,2vin, Vinyl (3,17β-dihydroxyestran-1,3,5(10)-trien-16α-yl) formates] | – | – | – | 0.4 ± 0.3 | – | – | – | stability under the conditions used in the esterase assay [6]: stable
